# Biological target: T1, HIV-integrase (Human immunodeficiency virus type 1 group M subtype B, UniProt P12497)
# T1 construct: Recombinant integrase (0.26 ng) was incubated with the beads
# Assay: HIV-Integrase Inhibition Activity (SPA bead integration assay with P33 labeled target DNA)
# Type: biochemical
# Conditions: recombinant integrase, class symbols; read-out: in vitro activity
# Summary of the method: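 Biotinylated substrate DNA on streptavidin SPA beads loaded with recombinant integrase (90 min, 37° C), washed, then inhibitor plus 0.1 fmol P33-labeled target DNA added. Reaction stopped with 10 mM EDTA; integration measured as CPM by scintillation, giving IC50 ranks.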
row,Compound,IC50
1,"Cc1cc(CNC(=O)c2nc3n(c(=O)c2O)CC2CCC3(NC(=O)[C@@H]3CCCN3S(C)(=O)=O)CC2)ccc1F [Example 263, 7,10-Ethanopyrimido[1,2-a]azepine-2-carboxamide, N-[(4-fluoro-3-methylphenyl)methyl]-4,6,7,8,9,10-hexahydro-3-hydroxy-10-[[[(2S)-1-(methylsulfonyl)-2-pyrrolidinyl]carbonyl]amino]-4-oxo-]",< 10 nM
2,"COCCN(C)C(=O)C(=O)N(C)C12CCC(CC1)Cn1c2nc(C(=O)NCc2ccc(F)c(C)c2)c(O)c1=O [Example 168, N-(2-((4-Fluoro-3-methylbenzyl)carbamoyl)-3-hydroxy-4-oxo-6,7,8,9-tetrahydro-7,10-ethanopyrimido[1,2-a]azepin-10(4H)-yl)-N′-(2-methoxyethyl)-N,N′-dimethylethanediamide]",< 10 nM
3,"COC[C@H]1CCCN1C(=O)C(=O)NC12CCC(CC1)Cn1c2nc(C(=O)NCc2ccc(F)cc2)c(O)c1=O [Example 88, N-(4-Fluorobenzyl)-3-hydroxy-10-((((2R)-2-(methoxymethyl)-1-pyrrolidinyl)(oxo)acetyl)amino)-4-oxo-4,6,7,8,9,10-hexahydro-7,10-ethanopyrimido[1,2-a]azepine-2-carboxamide]",< 10 nM
4,"CN(C)C(=O)C(=O)NC12CCC(CC1)Cn1c2nc(C(=O)NCc2ccc(F)cc2CO)c(O)c1=O [Example 122, N′-(2-((4-Fluoro-2-(hydroxymethyl)benzyl)carbamoyl)-3-hydroxy-4-oxo-6,7,8,9-tetrahydro-7,10-ethanopyrimido[1,2-a]azepin-10(4H)-yl)-N,N-dimethylethanediamide]",< 10 nM
5,"CN(C(=O)N(C)C12CCC(CC1)Cn1c2nc(C(=O)NCc2ccc(F)cc2)c(O)c1=O)c1ccccn1 [Example 328, 7,10-Ethanopyrimido[1,2-a]azepine-2-carboxamide, N-[(4-fluorophenyl)methyl]-4,6,7,8,9,10-hexahydro-3-hydroxy-10-[methyl[(methyl-2-pyridinylamino)carbonyl]amino]-4-oxo-]",10 to 100 nM
6,"CN(C)CCN(C)C(=O)C(=O)NC12CCC(CC1)Cn1c2nc(C(=O)NCc2ccc(F)cc2)c(O)c1=O [Example 93, N-(2-(Dimethylamino)ethyl)-N′-(2-((4-fluorobenzyl)carbamoyl)-3-hydroxy-4-oxo-6,7,8,9-tetrahydro-7,10-ethanopyrimido[1,2-a]azepin-10(4H)-yl)-N-methylethanediamide]",< 10 nM
7,"Cc1cc(CNC(=O)c2nc3n(c(=O)c2O)CC2CCC3(N(C)C(=O)C(=O)N(C)C)CC2)ccc1F [Example 156, N-(2-((4-Fluoro-3-methylbenzyl)carbamoyl)-3-hydroxy-4-oxo-6,7,8,9-tetrahydro-7,10-ethanopyrimido[1,2-a]azepin-10(4H)-yl)-N,N′,N′-trimethylethanediamide]",< 10 nM
8,"CO[C@@H]1C[C@@H](C(=O)NC23CCC(CC2)Cn2c3nc(C(=O)NCc3ccc(F)cc3)c(O)c2=O)N(S(C)(=O)=O)C1 [Example 274, 7,10-Ethanopyrimido[1,2-a]azepine-2-carboxamide, N-[(4-fluorophenyl)methyl]-4,6,7,8,9,10-hexahydro-3-hydroxy-10-[[[(2S,4R)-4-methoxy-1-(methylsulfonyl)-2-pyrrolidinyl]carbonyl]amino]-4-oxo-]",< 10 nM
9,CN(C)C(=O)C(=O)NC12CCC(CC1)Cn1c2nc(C(=O)NCc2ccccc2-c2ccccc2)c(O)c1=O [Example 387],< 10 nM
10,"Cc1cc(CNC(=O)c2nc3n(c(=O)c2O)CC2CCC3(NC(=O)C3(c4ccccn4)CC3)CC2)ccc1F [Example 304, 7,10-Ethanopyrimido[1,2-a]azepine-2-carboxamide, N-[(4-fluoro-3-methylphenyl)methyl]-4,6,7,8,9,10-hexahydro-3-hydroxy-4-oxo-10-[[[1-(2-pyridinyl)cyclopropyl]carbonyl]amino]-]",< 10 nM

# Source: patent US8129398B2 (priority 2008, dated 2012)
